Tested on: HCT116 tumour line (ref. ATCC-CCL247)
Test: MTS proliferation and cell viability test on the HCT116 tumour line
Format: cell-based
Details: Homo sapiens, HCT-116, incubation of the tested compound for 72 h, 50% loss of proliferation and of cell viability
Experimental: The proliferation and the cell viability were determined in a test using 3-(4,5-dimethylthiazol-2-yl)-5-(3-carboxymethoxyphenyl)-2-(4-sulfophenyl)-2H-tetrazolium (MTS) according to Fujishita T. et al. Oncology 2003, 64(4), 399-406 (see page 401). In this test, the mitochondrial capacity of the living cells for converting the MTS into a coloured compound, after incubation of the tested compound for 72 h, is measured. IC50 (nM) denotes the concentration of compound which results in a 50% loss of proliferation and of cell viability.
The compounds of Table I were the subject of in vitro experimental tests on the HCT116 tumour line (ref. ATCC-CCL247).

**Q.** Which IC50 does the source give for `CCn1c(N)c(C(=O)O)c(=O)c2ccc(-c3ccc(NC(=O)NCc4cccnc4)cc3)nc21` [No. 13, 2-Amino-1-ethyl-4-oxo-7-[4-(3-pyridin-3-ylmethylureido)phenyl]-1,4-dihydro[1,8]naphthyridine-3-carboxylic acid] here?
**A.** 6000 pM

**Q.** Which IC50 does the source give for `CCn1c(N)c(C(=O)NC)c(=O)c2cnc(-c3ccc(NC(=O)NCc4cccnc4)cc3)nc21` [No. 53, 7-Amino-8-ethyl-5-oxo-2-[4-(3-pyridin-3-ylmethylureido)phenyl]-5,8-dihydro-pyrido[2,3-d]pyrimidine-6-carboxylic acid methylamide] here?
**A.** 6000 pM

**Q.** With `CCn1c(N)c(C(=O)NC)c(=O)c2ccc(-c3ccc(NC(=O)/C=C/c4cccnc4)cc3)nc21` [No. 7, 2-Amino-1-ethyl-4-oxo-7-[4-((E)-3-pyridin-3-yl-acryloylamino)phenyl]-1,4-dihydro[1,8]naphthyridine-3-carboxylic acid methylamide] as the molecule, how does the IC50 read?
**A.** 2000 pM

**Q.** With `CCn1c(N)c(C(=O)NC)c(=O)c2ccc(-c3ccc(NC(=O)NCc4cccnc4)cc3)nc21` [No. 1, 2-Amino-1-ethyl-4-oxo-7-[4-(3-pyridin-3-ylmethylureido)phenyl]-1,4-dihydro[1,8]naphthyridine-3-carboxylic acid methylamide] as the molecule, how does the IC50 read?
**A.** 200 to 500 pM

**Q.** For `CCn1c(NCCN2CCN(C)CC2)c(C(=O)NCCN2CCN(C)CC2)c(=O)c2ccc(-c3ccc(NC(=O)NCc4cccnc4)cc3)nc21` [No. 46, 1-Ethyl-2-[2-(4-methyl-piperazin-1-yl)-ethylamino]-4-oxo-7-[4-(3-pyridin-3-ylmethylureido)phenyl]-1,4-dihydro[1,8]naphthyridine-3-carboxylic acid [2-(4-methylpiperazin-1-yl)ethyl]amide], which IC50 is on record?
**A.** 1900 pM

**Q.** Which IC50 does the source give for `CCn1c(NCCN2CCCC2)c(C(=O)NCCN2CCCC2)c(=O)c2ccc(-c3ccc(NC(=O)NCc4cccnc4)cc3)cc21` [No. 61, 1-Ethyl-4-oxo-7-[4-(3-pyridin-3-ylmethylureido)phenyl]-2-(2-pyrrolidin-1-ylethylamino)-1,4-dihydroquinoline-3-carboxylic acid (2-pyrrolidin-1-ylethyl)amide] here?
**A.** 100 pM

**Q.** With `CCn1c(N)c(C(=O)NCCN2CCOCC2)c(=O)c2ccc(-c3ccc(NC(=O)NCc4cccnc4)cc3)nc21` [No. 30, 2-Amino-1-ethyl-4-oxo-7-[4-(3-pyridin-3-ylmethylureido)phenyl]-1,4-dihydro[1,8]naphthyridine-3-carboxylic acid (2-morpholin-4-ylethyl)amide] as the molecule, how does the IC50 read?
**A.** 100 pM

**Q.** With `CCn1c(NCC2CCCO2)c(C(=O)NCC2CCCO2)c(=O)c2ccc(-c3ccc(NC(=O)NCc4cccnc4)cc3)cc21` (centres unmarked) [No. 59, 1-Ethyl-4-oxo-7-[4-(3-pyridin-3-ylmethylureido)phenyl]-2-[(tetrahydrofuran-2-ylmethyl)amino]-1,4-dihydroquinoline-3-carboxylic acid (tetrahydrofuran-2-ylmethyl)amide] as the molecule, how does the IC50 read?
**A.** 470 pM

**Q.** For `CCn1c(NCCN(C(C)C)C(C)C)c(C(=O)NCCN(C(C)C)C(C)C)c(=O)c2ccc(-c3ccc(NC(=O)NCc4cccnc4)cc3)cc21` [No. 60, 2-(2-Diisopropylaminoethylamino)-1-ethyl-4-oxo-7-[4-(3-pyridin-3-ylmethylureido)phenyl]-1,4-dihydroquinoline-3-carboxylic acid (2-diisopropylaminoethyl)amide], which IC50 is on record?
**A.** 100 pM

**Q.** Which IC50 does the source give for `CCn1c(N)c(C(N)=O)c(=O)c2ccc(-c3ccc(NC(=O)NCc4cccnc4)cc3)cc21` [No. 56, 2-Amino-1-ethyl-4-oxo-7-[4-(3-pyridin-3-ylmethylureido)phenyl]-1,4-dihydroquinoline-3-carboxylic acid amide] here?
**A.** 190 pM

**Q.** For `CCn1c(NCCN2CCCC2C)c(C(=O)NCCN2CCCC2C)c(=O)c2ccc(-c3ccc(NC(=O)NCc4cccnc4)cc3)nc21` (centres unmarked) [No. 57, 1-Ethyl-2-[2-(2-methyl-pyrrolidin-1-yl)-ethylamino]-4-oxo-7-[4-(3-pyridin-3-ylmethylureido)phenyl]-1,4-dihydro[1,8]naphthyridine-3-carboxylic acid [2-(2-methylpyrrolidin-1-yl)ethyl]amide], which IC50 is on record?
**A.** 260 pM

**Q.** Which IC50 does the source give for `CCOC(=O)c1c(N)n(CC)c2nc(-c3ccc(NC(=O)NCc4cccnc4)cc3)ccc2c1=O` [No. 10, 2-Amino-1-ethyl-4-oxo-7-[4-(3-pyridin-3-ylmethylureido)phenyl]-1,4-dihydro[1,8]naphthyridine-3-carboxylic acid ethyl ester] here?
**A.** < 1000 pM

**Q.** With `CCn1c(N)c(C(=O)NC)c(=O)c2ccc(-c3ccc(NC(=O)NCc4cccnc4)cc3)cc21` [No. 27, 2-Amino-1-ethyl-4-oxo-7-[4-(3-pyridin-3-ylmethylureido)phenyl]-1,4-dihydroquinoline-3-carboxylic acid methylamide] as the molecule, how does the IC50 read?
**A.** 100 pM

Tested on: not given
Test: not given
Details: not given

**Q.** With `CCn1c(N)c(C(=O)NCCN2CCOCC2)c(=O)c2ccc(-c3ccc(NC(=O)NCc4cccnc4)cc3)nc21` [No. 30, 2-Amino-1-ethyl-4-oxo-7-[4-(3-pyridin-3-ylmethylureido)phenyl]-1,4-dihydro[1,8]naphthyridine-3-carboxylic acid (2-morpholin-4-ylethyl)amide] as the molecule, how does the melting point read?
**A.** 245 °C

Reference: patent US20110251194A1, “ANTINEOPLASTIC DERIVATIVES, PREPARATION THEREOF AND THERAPEUTIC USE THEREOF” (SANOFI-AVENTIS, priority 2008, published 2011)
